The values that follow come from patent US9193733B2, “Piperidinylcyclobutyl substituted pyrrolopyridine and pyrrolopyrimidine derivatives as JAK inhibitors” (Incyte Corporation, priority 2012, dated 2015).

Each structure is given as a SMILES string. Structures can show the parent of a compound that is named as a salt.

Common to all, as to format: biochemical
Experiment [1] has as its system human JAK1 (a.a. 837-1142) catalytic domain. The experiment is described as follows: In vitro JAK kinase assay (HTRF, phosphorylation of a biotinylated peptide), JAK1. The note with it: ratio of JAK2 IC50 to JAK1 IC50, 1 mM ATP. Here is the method: (§1) Compounds herein were tested for inhibitory activity of JAK targets according to the following in vitro assay described in Park et al., Analytical Biochemistry 1999, 269, 94-104. The catalytic domains of human JAK1 (a.a. 837-1142) and JAK2 (a.a. 828-1132) with an N-terminal His tag were expressed using baculovirus in insect cells and purified. The catalytic activity of JAK1 and JAK2 was assayed by measuring the phosphorylation of a biotinylated peptide. The phosphorylated peptide was detected by homogenous time resolved fluorescence (HTRF). IC50s of compounds were measured for each kinase in the 40 microL reactions that contain the enzyme, ATP and 500 nM peptide in 50 mM Tris (pH 7.8) buffer with 100 mM NaCl, 5 mM DTT, and 0.1 mg/mL (0.01%) BSA. For the 1 mM IC50 measurements, ATP concentration in the reactions was 1 mM. Reactions were carried out at room temperature for 1 hour and then stopped with 20 μL 45 mM EDTA, 300 nM SA-APC, 6 nM Eu-Py20 in assay buffer (Perkin Elmer, Boston, Mass.). Binding to the Europium labeled antibody took place for 40 minutes and HTRF signal was measured on a Fusion plate reader (Perkin Elmer, Boston, Mass.). See Table A for data related to compounds of the Examples (at 1 mM). Data is indicated as ranges: <20 nM (+), 20 to <150 nM (++), 150 to 500 nM (+++).

Experiment [2] addresses T1, human JAK1 (a.a. 837-1142) catalytic domain (Homo sapiens, UniProt P23458).
T1 construct: human JAK1 (a.a. 837-1142) and JAK2 (a.a. 828-1132); His tag (N); made in house; host or cells: insect cells (baculovirus)
The description is as above. Particulars: 1 mM ATP. Here is the method:
as §1

In experiment [3] the target is T2, human JAK2 (a.a. 828-1132) catalytic domain (Homo sapiens, UniProt O60674).
T2 construct: human JAK1 (a.a. 837-1142) and JAK2 (a.a. 828-1132); His tag (N); made in house; host or cells: insect cells (baculovirus)
T2 sequence (O60674 828-1132): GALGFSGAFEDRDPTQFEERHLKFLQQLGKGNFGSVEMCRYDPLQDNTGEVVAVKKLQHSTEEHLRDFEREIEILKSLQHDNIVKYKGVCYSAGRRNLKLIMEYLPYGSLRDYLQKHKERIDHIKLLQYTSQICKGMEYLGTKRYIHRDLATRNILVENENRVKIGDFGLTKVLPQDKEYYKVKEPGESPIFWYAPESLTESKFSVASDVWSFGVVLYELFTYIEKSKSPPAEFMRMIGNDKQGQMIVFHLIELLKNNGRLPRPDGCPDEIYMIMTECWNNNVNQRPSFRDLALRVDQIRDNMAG
The experiment is described as follows: In vitro JAK kinase assay (HTRF, phosphorylation of a biotinylated peptide), JAK2. Particulars: 1 mM ATP. Here is the method: as §1

T1 sequence (P23458 849-1154): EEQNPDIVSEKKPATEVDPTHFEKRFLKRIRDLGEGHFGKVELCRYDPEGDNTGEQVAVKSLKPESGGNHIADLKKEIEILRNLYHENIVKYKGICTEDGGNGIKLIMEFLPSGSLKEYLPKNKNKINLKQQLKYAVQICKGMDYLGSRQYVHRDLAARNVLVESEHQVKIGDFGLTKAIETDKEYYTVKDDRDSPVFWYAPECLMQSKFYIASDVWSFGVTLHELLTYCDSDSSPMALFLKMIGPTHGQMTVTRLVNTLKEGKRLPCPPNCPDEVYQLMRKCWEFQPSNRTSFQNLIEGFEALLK

In the case of `N#CC[C@]1(n2cc(-c3ncnc4[nH]ccc34)cn2)C[C@H](N2CCC(Oc3cc(Cn4cnnc4)cc(C(F)(F)F)n3)CC2)C1` [Example 24, [trans-1-[4-(7H-pyrrolo[2,3-d]pyrimidin-4-yl)-1H-pyrazol-1-yl]-3-(4-{[4-(4H-1,2,4-triazol-4-ylmethyl)-6-(trifluoromethyl)pyridin-2-yl]oxy}piperidin-1-yl)cyclobutyl]acetonitrile], the JAK2/JAK1 in experiment [1] was more than 10. Further, the IC50 is less than 20 nM in experiment [2] and 20 to 150 nM in experiment [3].
Take `N#CC[C@]1(n2cc(-c3ncnc4[nH]ccc34)cn2)C[C@H](N2CCC(Oc3cc(CN[C@@H]4CCOC4)cc(C(F)(F)F)n3)CC2)C1` [Example 8, [trans-1-[4-(7H-pyrrolo[2,3-d]pyrimidin-4-yl)-1H-pyrazol-1-yl]-3-(4-{[4-{[(3R)-tetrahydrofuran-3-ylamino]methyl}-6-(trifluoromethyl)pyridin-2-yl]oxy}piperidin-1-yl)cyclobutyl]acetonitrile]: the JAK2/JAK1 in experiment [1] was more than 10. Moreover, the figures for the IC50 in experiment [2] and in experiment [3] were less than 20 nM and 20 to 150 nM, respectively.
Take `CN(CCO)Cc1cc(NC2CCN([C@H]3C[C@](CC#N)(n4cc(-c5ncnc6[nH]ccc56)cn4)C3)CC2)nc(C(F)(F)F)c1` [Example 42, {trans-3-(4-{[4-{[(2-hydroxyethyl)(methyl)amino]methyl}-6-(trifluoromethyl)pyridin-2-yl]amino}piperidin-1-yl)-1-[4-(7H-pyrrolo[2,3-d]pyrimidin-4-yl)-1H-pyrazol-1-yl]cyclobutyl}acetonitrile]: the JAK2/JAK1 in experiment [1] is more than 10. Besides, the IC50 in experiment [2] is less than 20 nM; in experiment [3], 20 to 150 nM.
On to `N#CC[C@]1(n2cc(-c3ncnc4[nH]ccc34)cn2)C[C@H](N2CCC(Oc3cc(CN(CCO)CCO)cc(C(F)(F)F)n3)CC2)C1` [Example 16, {trans-3-(4-{[4-{[bis(2-hydroxyethyl)amino]methyl}-6-(trifluoromethyl)pyridin-2-yl]oxy}piperidin-1-yl)-1-[4-(7H-pyrrolo[2,3-d]pyrimidin-4-yl)-1H-pyrazol-1-yl]cyclobutyl}acetonitrile], for which the JAK2/JAK1 in experiment [1] is reported as more than 10. Moreover, the IC50 in experiment [2] was less than 20 nM; in experiment [3] it was 20 to 150 nM.
Consider `COCCNCc1cc(OC2CCN([C@H]3C[C@](CC#N)(n4cc(-c5ncnc6[nH]ccc56)cn4)C3)CC2)nc(C(F)(F)F)c1` [Example 3, {trans-3-(4-{[4-{[(2-methoxyethyl)amino]methyl}-6-(trifluoromethyl)pyridin-2-yl]oxy}piperidin-1-yl)-1-[4-(7H-pyrrolo[2,3-d]pyrimidin-4-yl)-1H-pyrazol-1-yl]cyclobutyl}acetonitrile], for which the JAK2/JAK1 in experiment [1] is recorded as more than 10. Also, the IC50 in experiment [2] is less than 20 nM; in experiment [3], 20 to 150 nM.
Consider `N#CC[C@]1(n2cc(-c3ncnc4[nH]ccc34)cn2)C[C@H](N2CCC(Nc3cc(CN4CCC4)cc(C(F)(F)F)n3)CC2)C1` [Example 39, {trans-3-(4-{[4-(azetidin-1-ylmethyl)-6-(trifluoromethyl)pyridin-2-yl]amino}piperidin-1-yl)-1-[4-(7H-pyrrolo[2,3-d]pyrimidin-4-yl)-1H-pyrazol-1-yl]cyclobutyl}acetonitrile], for which the JAK2/JAK1 in experiment [1] is given as more than 10. In addition, the IC50 in experiment [2] is less than 20 nM; in experiment [3], 20 to 150 nM.
The matching figures for `CC1(C)CN(C(=O)c2cc(OC3CCN([C@H]4C[C@](CC#N)(n5cc(-c6ncnc7[nH]ccc67)cn5)C4)CC3)nc(C(F)(F)F)c2)C1` [Example 26, {trans-3-(4-{[4-[(3,3-dimethylazetidin-1-yl)carbonyl]-6-(trifluoromethyl)pyridin-2-yl]oxy}piperidin-1-yl)-1-[4-(7H-pyrrolo[2,3-d]pyrimidin-4-yl)-1H-pyrazol-1-yl]cyclobutyl}acetonitrile]: more than 10, less than 20 nM and 150 to 500 nM.
The matching figures for `CC1(NCc2cc(OC3CCN([C@H]4C[C@](CC#N)(n5cc(-c6ncnc7[nH]ccc67)cn5)C4)CC3)nc(C(F)(F)F)c2)CC1` [Example 10, {trans-3-(4-{[4-{[(1-methylcyclopropyl)amino]methyl}-6-(trifluoromethyl)pyridin-2-yl]oxy}piperidin-1-yl)-1-[4-(7H-pyrrolo[2,3-d]pyrimidin-4-yl)-1H-pyrazol-1-yl]cyclobutyl}acetonitrile]: more than 10, less than 20 nM and 20 to 150 nM.
The matching figures for `N#CC[C@]1(n2cc(-c3ncnc4[nH]ccc34)cn2)C[C@H](N2CCC(Oc3cc(CN4CC(C#N)C4)cc(C(F)(F)F)n3)CC2)C1` [Example 4, 1-{[2-[(1-{trans-3-(cyanomethyl)-3-[4-(7H-pyrrolo[2,3-d]pyrimidin-4-yl)-1H-pyrazol-1-yl]cyclobutyl}piperidin-4-yl)oxy]-6-(trifluoromethyl)pyridin-4-yl]methyl}azetidine-3-carbonitrile]: more than 10, less than 20 nM and 20 to 150 nM.
As to `N#CC[C@]1(n2cc(-c3ncnc4[nH]ccc34)cn2)C[C@H](N2CCC(Oc3cc(Cn4ccnc4)cc(C(F)(F)F)n3)CC2)C1` [Example 22, {trans-3-(4-{[4-(1H-imidazol-1-ylmethyl)-6-(trifluoromethyl)pyridin-2-yl]oxy}piperidin-1-yl)-1-[4-(7H-pyrrolo[2,3-d]pyrimidin-4-yl)-1H-pyrazol-1-yl]cyclobutyl}acetonitrile], the JAK2/JAK1 in experiment [1] was more than 10. The figures for the IC50 in experiment [2] and in experiment [3] were less than 20 nM and 20 to 150 nM, respectively.
As to `N#CC[C@]1(n2cc(-c3ncnc4[nH]ccc34)cn2)C[C@H](N2CCC(Oc3cc(CN[C@H]4C[C@@H](O)C4)cc(C(F)(F)F)n3)CC2)C1` [Example 18, {trans-3-(4-{[4-{[(cis-3-hydroxycyclobutyl)amino]methyl}-6-(trifluoromethyl)pyridin-2-yl]oxy}piperidin-1-yl)-1-[4-(7H-pyrrolo[2,3-d]pyrimidin-4-yl)-1H-pyrazol-1-yl]cyclobutyl}acetonitrile 3.6 x trifluoroacetate salt], in experiment [1], the JAK2/JAK1 is more than 10. In addition, the IC50 in experiment [2] is less than 20 nM; in experiment [3], 20 to 150 nM.
For `CCNCc1cc(NC2CCN([C@H]3C[C@](CC#N)(n4cc(-c5ncnc6[nH]ccc56)cn4)C3)CC2)nc(C(F)(F)F)n1` [Example 28, {trans-3-(4-{[6-[(ethylamino)methyl]-2-(trifluoromethyl)pyrimidin-4-yl]amino}piperidin-1-yl)-1-[4-(7H-pyrrolo[2,3-d]pyrimidin-4-yl)-1H-pyrazol-1-yl]cyclobutyl}acetonitrile], in experiment [1], the JAK2/JAK1 is more than 10. Besides, the values for the IC50 in experiment [2] and in experiment [3] were less than 20 nM and 20 to 150 nM, respectively.
Consider `N#CC[C@]1(n2cc(-c3ncnc4[nH]ccc34)cn2)C[C@H](N2CCC(Oc3cc(CCO)cc(C(F)(F)F)n3)CC2)C1` [Example 20, {trans-3-(4-{[4-(2-hydroxyethyl)-6-(trifluoromethyl)pyridin-2-yl]oxy}piperidin-1-yl)-1-[4-(7H-pyrrolo[2,3-d]pyrimidin-4-yl)-1H-pyrazol-1-yl]cyclobutyl}acetonitrile], for which, in experiment [1], the JAK2/JAK1 is listed as more than 10. For the same molecule, the IC50 in experiment [2] is less than 20 nM; in experiment [3] it was 20 to 150 nM.
On to `N#CC[C@]1(n2cc(-c3ncnc4[nH]ccc34)cn2)C[C@H](N2CCC(Oc3cc(CN4CC5(COC5)C4)cc(C(F)(F)F)n3)CC2)C1` [Example 6, {trans-3-(4-{[4-(2-oxa-6-azaspiro[3.3]hept-6-ylmethyl)-6-(trifluoromethyl)pyridin-2-yl]oxy}piperidin-1-yl)-1-[4-(7H-pyrrolo[2,3-d]pyrimidin-4-yl)-1H-pyrazol-1-yl]cyclobutyl}acetonitrile], for which, in experiment [1], the JAK2/JAK1 is more than 10. The IC50 is less than 20 nM in experiment [2] and 20 to 150 nM in experiment [3].
For the molecule `CC1(C)CN(Cc2cc(OC3CCN([C@H]4C[C@](CC#N)(n5cc(-c6ncnc7[nH]ccc67)cn5)C4)CC3)nc(C(F)(F)F)c2)C1` [Example 13, {trans-3-(4-{[4-[(3,3-dimethylazetidin-1-yl)methyl]-6-(trifluoromethyl)pyridin-2-yl]oxy}piperidin-1-yl)-1-[4-(7H-pyrrolo[2,3-d]pyrimidin-4-yl)-1H-pyrazol-1-yl]cyclobutyl}acetonitrile], the JAK2/JAK1 in experiment [1] is recorded as more than 10. The IC50 in experiment [2] is less than 20 nM; in experiment [3], 20 to 150 nM.
As for `C[C@@H](CO)NCc1cc(OC2CCN([C@H]3C[C@](CC#N)(n4cc(-c5ncnc6[nH]ccc56)cn4)C3)CC2)nc(C(F)(F)F)c1` [Example 1, {trans-3-(4-{[4-({[(1S)-2-hydroxy-1-methylethyl]amino}methyl)-6-(trifluoromethyl)pyridin-2-yl]oxy}piperidin-1-yl)-1-[4-(7H-pyrrolo[2,3-d]pyrimidin-4-yl)-1H-pyrazol-1-yl]cyclobutyl}acetonitrile], in experiment [1], the JAK2/JAK1 is listed as more than 10. The IC50 in experiment [2] is less than 20 nM; in experiment [3], 20 to 150 nM.
